Test results reported in patent publication US10590365B2, “Compounds for a controlled release of active molecules” (FIRMENICH SA, priority 2013, dated 2020).

Legend:
[1] = test system: Propionibacterium acnes ATCC 6919; assay: Incubation of pro-perfume glucuronide mixture with skin bacteria; remaining conjugate by LC-MS; format: cell-based; settings: After 5 days; for Glucuronide-conjugates remaining after incubation with Propionibacterium acnes (in percentage), Average: average of incubations 1-3; for Glucuronide-conjugates remaining after incubation with Propionibacterium acnes (in percentage): blank fixed as 100%
Procedure: (§1) The liberation of perfuming alcohols from the present invention's compounds of formula (I) was tested in vitro during incubation with defined skin bacteria strains.
(§2) c) Bacterial solutions: Two underarm bacterial isolates, Propionibacterium acnes ATCC 6919 and Staphylococcus warneri DSM 20316 (identified by 16S rDNA sequencing by Deutsche Sammlung von Mikroorganismen and ZellKulturen DSMZ, Germany), were cultivated on SCH agar at 37° C. during 72 h in anaerobic conditions and on TSA at 37° C. during 24 h, respectively.
One isolated colony of P. acnes from the pure primary culture on SCH agar was inoculated on a new SCH agar and incubated at 37° C., 72 h in anaerobic conditions. After incubation, the whole culture was dissociated by shaking in 20 ml of NaCl 0.9% then centrifuged 10 min at 5000 rpm at room temperature. The pellet was washed in NaCl 0.9% and concentrated two times in NaCl 0.9%.
(§3) A pro-perfume glucuronides mixture containing menthol glucuronide (6 mg/kg), phenethylol β-glucuronide (10.75 mg/kg) and raspberry ketone β-glucuronide (13 mg/kg) in water was incubated with either: • 500 μL of the previously described bacterial solution • 10 μL of commercial enzymes β-glucuronidase/arylsulfatase from Helix pomatia (RocheDiagnostic, Indianapolis, USA) and 490 μL of NaCl 0.9% as a positive control • 500 μl of NaCl 0.9% as a negative controlfor the incubation with bacteria.
(§4) Each solution was prepared in duplicate (in glass vials).
(§5) The vials were placed in a heating block at 37° C. under gentle stirring from 1 to 7 days depending on the bacteria solutions. At the end of the incubation time, vials were cooled down to room temperature, 150 μL was mixed with 50 μL of LC-MS solvent B, filtered through acrodisc and 1 μL was injected on LC-MS (peak areas considered were measured in SIM mode according to their respective molecular weights). Comparisons were made between glucuronides (HESI−) or glucosides (HESI+) areas in incubated solutions and glucuronides (HESI−) or glucosides (HESI+) areas in the blanks (fixed as 100%).

[2] = test system: Staphylococcus warneri DSM 20316; assay: Incubation of pro-perfume conjugates with skin bacteria; remaining conjugate by LC-MS; format: cell-based
Procedure: as §1, §2
Similarly, one colony of S. warneri from the pure primary culture on TSA was inoculated on a new TSA and incubated for 24 h at 37° C. After incubation, the whole culture was dissociated by shaking in 20 ml of NaCl 0.9% then centrifuged 15 min at 5000 rpm, 4° C. The pellet was washed in NaCl 0.9% and concentrated two times in NaCl 0.9%.
as §3, §4, §5

[3] = Table 2, After 1 day, incubation 1
[4] = Table 2, After 1 day, incubation 2
[5] = Table 3, After 1 day, incubation 1
[6] = Table 3, After 1 day, incubation 2
[7] = Table 3, After 5 day, incubation 1
[8] = Table 3, After 5 day, incubation 2

In the case of `CC(=O)CCc1ccc(O[C@@H]2O[C@H](C(=O)O)[C@@H](O)[C@H](O)[C@H]2O)cc1` [(4-hydroxyphenyl)-2-butanone-β-D-glucopyranosiduronic acid], the “Glucuronide-conjugates remaining after incubation with Propionibacterium acnes (in percentage), Average” value [1] is reported as 58%, the “Glucuronide-conjugates remaining after incubation with Propionibacterium acnes (in percentage)” value ([1]; incubation 1) is reported as 61% and the “Glucuronide-conjugates remaining after incubation with Propionibacterium acnes (in percentage)” value ([1]; incubation 2) is reported as 58%. For the same compound, the “Glucuronide-conjugates remaining after incubation with Propionibacterium acnes (in percentage)” value ([1]; incubation 3) was 57%, the “Glucuronide-conjugates remaining after incubation with S. warneri (in percentage), Average” value ([2]; Table 2, After 1 day) was 0% and the “Glucuronide-conjugates remaining after incubation with S. warneri (in percentage)” value [2, 3] was 0%. For the same compound, the “Glucuronide-conjugates remaining after incubation with S. warneri (in percentage)” value [2, 4] was 0%.

In the case of `CC1CCC(C(C)C)C(O)C1` (centres unmarked) [menthol], the “Glucuronide-conjugates remaining after incubation with S. warneri (in percentage), Average” value ([2]; Table 3, After 1 day) is reported as 74%, the “Glucuronide-conjugates remaining after incubation with S. warneri (in percentage)” value [2, 5] is reported as 72% and the “Glucuronide-conjugates remaining after incubation with S. warneri (in percentage)” value [2, 6] is reported as 77%. The “Glucuronide-conjugates remaining after incubation with S. warneri (in percentage), Average” value ([2]; Table 3, After 5 day) was 34%, the “Glucuronide-conjugates remaining after incubation with S. warneri (in percentage)” value [2, 7] was 36% and the “Glucuronide-conjugates remaining after incubation with S. warneri (in percentage)” value [2, 8] was 31%.

In the case of `CC1CCC(C(C)C)C(OC2O[C@H](C(=O)O)[C@@H](O)[C@H](O)[C@H]2O)C1` (some centres unmarked) [p-menthan-3-ol, glucopyranosiduronic acid 1-menthyl], the “Glucuronide-conjugates remaining after incubation with Propionibacterium acnes (in percentage), Average” value [1] is reported as 7%, the “Glucuronide-conjugates remaining after incubation with Propionibacterium acnes (in percentage)” value ([1]; incubation 1) is reported as 5% and the “Glucuronide-conjugates remaining after incubation with Propionibacterium acnes (in percentage)” value ([1]; incubation 2) is reported as 9%. For the same compound, the “Glucuronide-conjugates remaining after incubation with Propionibacterium acnes (in percentage)” value ([1]; incubation 3) was 7%, the “Glucuronide-conjugates remaining after incubation with S. warneri (in percentage), Average” value ([2]; Table 2, After 1 day) was 0% and the “Glucuronide-conjugates remaining after incubation with S. warneri (in percentage)” value [2, 3] was 1%. The “Glucuronide-conjugates remaining after incubation with S. warneri (in percentage)” value [2, 4] was 0%.

For `C=CCc1ccc(O[C@@H]2O[C@H](C(=O)O)[C@@H](O)[C@H](O)[C@H]2O)c(OC)c1` [β-D-glucopyranosiduronic acid 2-methoxy-4-(2-propen-1-yl)phenyl], the “Glucuronide-conjugates remaining after incubation with S. warneri (in percentage), Average” value ([2]; Table 3, After 1 day) was 100%, the “Glucuronide-conjugates remaining after incubation with S. warneri (in percentage)” value [2, 5] was 130% and the “Glucuronide-conjugates remaining after incubation with S. warneri (in percentage)” value [2, 6] was 120%. For the same compound, the “Glucuronide-conjugates remaining after incubation with S. warneri (in percentage), Average” value ([2]; Table 3, After 5 day) was 0%, the “Glucuronide-conjugates remaining after incubation with S. warneri (in percentage)” value [2, 7] was 0% and the “Glucuronide-conjugates remaining after incubation with S. warneri (in percentage)” value [2, 8] was 0%.

`COc1cc(C=O)ccc1O[C@@H]1O[C@H](C(=O)O)[C@@H](O)[C@H](O)[C@H]1O` [β-D-glucopyranosiduronic acid 4-formyl-2-methoxyphenyl] was tested, and the “Glucuronide-conjugates remaining after incubation with S. warneri (in percentage), Average” value ([2]; Table 3, After 1 day) was 100%, the “Glucuronide-conjugates remaining after incubation with S. warneri (in percentage)” value [2, 5] was 84% and the “Glucuronide-conjugates remaining after incubation with S. warneri (in percentage)” value [2, 6] was 96%. The “Glucuronide-conjugates remaining after incubation with S. warneri (in percentage), Average” value ([2]; Table 3, After 5 day) was 0%, the “Glucuronide-conjugates remaining after incubation with S. warneri (in percentage)” value [2, 7] was 0% and the “Glucuronide-conjugates remaining after incubation with S. warneri (in percentage)” value [2, 8] was 0%.
